From article PMC12190436, “5-Ene-2-arylaminothiazol-4(5H)-ones Induce Apoptosis in Breast Cancer Cells” (Cells, 2025)

Tests used:
[1] = tested on: MDA-MB-231; assay: MTT cell viability assay; assay type: cell-based; settings: Homo sapiens
Excerpt: (§1) All of the tested cell lines were acquired from the American Type Culture Collection (ATCC, Manassas, VA, USA), including human breast cancer cell lines (MCF-7, MDA-MB-231), human gastric cancer cell line (AGS), human colorectal cancer cell lines (HT-29, DLD-1), human glioblastoma cancer cell lines (T98G, A172), mouse astrocyte type I clone (C8-D1A), human normal epithelial breast cells (MCF-10A) and primary dermal fibroblast (HDFa). Such cell lines as AGS, MCF-7, MDA-MB-231, A172, T98G, C8-D1A, and primary dermal fibroblast (HDFa) were cultured in complete medium–DMEM (Corning, Kennebunk, ME, USA). RPMI-1640 (ATCC, Manassas, VA, USA) was used for the DLD-1 cell line, and McCoy’s 5A (PAN-Biotech, Aidenbach, Germany) for the HT-29 cell line. To all utilized media additionally was added 10% fetal bovine serum (FBS) (Eurx, Gdansk, Poland) and 1% penicillin and streptomycin solution (Corning, Kennebunk, ME, USA). MCF-10A cells were incubated in MEGM (Mammary Epithelial Cell Growth Medium) BulletKit supplemented with penicillin/streptomycin cocktail and 5% horse serum. All cells were cultured at 37 °C in an atmosphere with 5% CO₂ in tissue culture dishes (Sarstedt, Numbrecht, Germany). For experiments, cells were washed with phosphate-buffered saline (PBS) (Corning, Kennebunk, ME, USA) followed by the addition of 0.05% trypsin with 0.02% EDTA (Corning, Kennebunk, ME, USA). Scepter 3.0 cell counter (Merck Millipore, Burlington, MA, USA) was applied before each seeding to calculate the number of cells. For the next analyses, cells were reseeded in 6-well plates, 24-well plates, and 96-well plates.
(§2) MTT (3-(4,5-dimethylthiazol-2-yl)-2,5-diphenyltetrazolium bromide) assay method was utilized to analyze compound effects on cell viability. All cell lines were seeded in 96-well plates with 1 × 10^4 cells per well. After 24 h, cells were treated with the tested compounds and reference drug at concentrations of 0.1, 1, 2.5, 5, 10, and 20 µM for 24, 48, or 72 h. Next, a solution of 3-(4,5-dimethyl-2-thiazolyl)-2,5-diphenyl-2H-tetrazolium bromide (Sigma-Aldrich, St. Louis, MO, USA) in PBS with a concentration of 5 mg/mL was prepared. After the incubation with tested compounds, 10 µL of the prepared MTT solution was applied to each well, followed by 2 h of incubation at 37 °C. Next, cells underwent lysis by adding 100 µL of pre-prepared lysing buffer (containing 25 mM HCl, 2% acetic acid, 3% DMF, and 5% SDS, with a pH of 4.7). The absorbance was measured using a UV-VIS Helios Gamma (Unicam/ThermoFisher Scientific Inc., Cleveland, OH, USA) at 570 nm wavelength. The cells incubated with vehicle substance (0.1% DMSO) were taken as controls.
(§3) To investigate the cytotoxic potential of the newly synthesized compounds, a comprehensive assessment was conducted utilizing the MTT assay. This assay was applied on a diverse panel of cell lines, such as human breast cancer cell lines (MCF-7 and MDA-MB-231), human gastric cancer cell line (AGS), human colorectal cancer cell lines (HT-29 and DLD-1), human glioblastoma cancer cell lines (T98G and A172), mouse astrocyte type I clone cells (C8-D1A), primary dermal fibroblast (HDFa), and human normal breast cells (MCF-10A) for 24, 48, and/or 72 h.

[2] = tested on: HT-29; assay: MTT cell viability assay; assay type: cell-based; settings: Homo sapiens
Excerpt: as §1, §2, §3

[3] = tested on: DLD-1; assay: MTT cell viability assay; assay type: cell-based; settings: Homo sapiens
Excerpt: as §1, §2, §3

[4] = tested on: T98G; assay: MTT cell viability assay; assay type: cell-based; settings: Homo sapiens
Excerpt: as §1, §2, §3

[5] = tested on: MCF-7; assay: MTT cell viability assay; assay type: cell-based; settings: Homo sapiens
Excerpt: as §1, §2, §3

[6] = tested on: AGS; assay: MTT cell viability assay; assay type: cell-based; settings: Homo sapiens
Excerpt: as §1, §2, §3

[7] = tested on: A172; assay: MTT cell viability assay; assay type: cell-based; settings: Homo sapiens
Excerpt: as §1, §2, §3

[8] = tested on: Primary Dermal Fibroblast (HDFa); assay: MTT cell viability assay; assay type: cell-based; settings: Homo sapiens, normal cells
Excerpt: as §1, §2, §3

[9] = tested on: MCF-7 cells; assay: Annexin V-FITC/propidium iodide flow cytometry; assay type: cell-based, human; settings: 24 h
Method: The MCF-7 cells were seeded on 6-well plates (1 × 10^5 cells per well) and incubated for 24 h. Afterwards, the cells were washed, and tested compounds (Les-6416, Les-6418, Les-6381, Les-6423, and Les-6424) were added in a concentration of 5 µM. The reference drug doxorubicin hydrochloride was applied in a concentration of 0.5 µM. The cells were incubated with the compounds for 24 h. Afterwards, the cells were washed several times with cold PBS and the cell suspensions were prepared in the binding buffer from the kit at a concentration of 1 × 10^6 cells/mL. A total of 100 µL of suspension was collected from each sample and transferred to the tubes. After that, 5 µL of Annexin V-FITC and 5 µL of propidium iodide were added. After 15 min of incubation at room temperature in a dark environment, the content of the tubes was filled with binding buffer up to 500 µL and assessed by BD FACSCanto II flow cytometer (Becton Dickinson Biosciences, San Jose, CA, USA). A total of 1 × 10^4 events were measured for each sample. The results were investigated by applying FACSDiva software Version 6.1.3. (BD Biosciences Systems, San Jose, CA, USA).
To assess the effects of novel compounds on apoptosis, we utilized flow cytometry analysis with Annexin V-FITC and Propidium Iodide double staining. In this way, we could distinguish between different cell populations based on their state: unstained or alive cells, cells stained with propidium iodide or necrotic cells, cells only stained with FITC-labeled annexin V or early apoptotic cells, and cells stained with both annexin V and propidium iodide or late apoptotic cells.

With `COc1cc(NC2=NC(=O)C(=Cc3ccco3)S2)cc(OC)c1OC` [Les-6424, 5-(Furan-2-ylmethylene)-2-((3,4,5-trimethoxyphenyl)amino)thiazol-4(5H)-one] the IC50 ([1]; MDA-MB-231 24 h) was > 20 µM, the IC50 ([1]; MDA-MB-231 48 h) was > 20 µM and the IC50 ([1]; MDA-MB-231 72 h) was > 20 µM. For the same compound, the IC50 ([2]; HT-29 24 h) was > 20 µM, the IC50 ([2]; HT-29 48 h) was > 20 µM and the IC50 ([3]; DLD-1 24 h) was > 20 µM. The IC50 ([3]; DLD-1 48 h) was > 20 µM, the IC50 ([4]; T98G 24 h) was > 20 µM and the IC50 ([4]; T98G 48 h) was > 20 µM. The IC50 ([5]; MCF7, MCF-7 24 h) was > 20 µM, the IC50 ([5]; MCF7, MCF-7 48 h) was > 20 µM and the IC50 ([5]; MCF7, MCF-7 72 h) was > 20 µM. The IC50 ([6]; AGS 24 h) was > 20 µM, the IC50 ([6]; AGS 48 h) was > 20 µM and the IC50 ([7]; A 172, A172 24 h) was > 20 µM. The IC50 ([7]; A 172, A172 48 h) was > 20 µM, the IC50 ([8]; HDFa 24 h) was > 20 µM and the IC50 ([8]; HDFa 48 h) was > 20 µM. For the same compound, the IC50 ([8]; HDFa 72 h) was > 20 µM, the “proapoptotic effect in comparison to the control” value ([9]; 5 µM) was “did not have any statistically significant results” and the viability at 5 µM ([9]; Homo sapiens, MCF7, 5 µM, read-out: Viable cells, cell population) was 90.4%.
